Data taken from PMC8330742, “New benzothieno[2,3-c]pyridines as non-steroidal CYP17 inhibitors: design, synthesis, anticancer screening, apoptosis induction, and in silico ADME profile studies” (Journal of Enzyme Inhibition and Medicinal Chemistry, 2021).

Legend:
[1] = tested on: CCRF-CEM; assay: NCI-60 SRB screen; type: cell-based; details: Homo sapiens, single dose 10^−5 M, read-out: Growth inhibition (%)
[2] = tested on: HL-60(TB); assay: NCI-60 SRB screen; type: cell-based, human; details: Homo sapiens; HL-60 (TB); single dose 10^−5 M; read-out: Growth inhibition (%)
[3] = tested on: K-562; assay: NCI-60 SRB screen; type: cell-based, human; details: Homo sapiens, K562; K-562; single dose 10^−5 M; read-out: Growth inhibition (%)
[4] = tested on: MOLT-4; assay: NCI-60 SRB screen; type: cell-based; details: Homo sapiens; MOLT-4; single dose 10^−5 M; read-out: Growth inhibition (%)
[5] = tested on: SR; assay: NCI-60 SRB screen; type: cell-based; details: Homo sapiens, single dose 10^−5 M, read-out: Growth inhibition (%)
[6] = tested on: A549/ATCC; assay: NCI-60 SRB screen; type: cell-based, human; details: Homo sapiens, single dose 10^−5 M, read-out: Growth inhibition (%)
[7] = tested on: EKVX; assay: NCI-60 SRB screen; type: cell-based, human; details: Homo sapiens, single dose 10^−5 M, read-out: Growth inhibition (%)
[8] = tested on: HOP-62; assay: NCI-60 SRB screen; type: cell-based, human; details: Homo sapiens; HOP-62; single dose 10^−5 M; read-out: Growth inhibition (%)
[9] = tested on: HOP-92; assay: NCI-60 SRB screen; type: cell-based, human; details: Homo sapiens; HOP-92; single dose 10^−5 M; read-out: Growth inhibition (%)
[10] = tested on: NCI-H226; assay: NCI-60 SRB screen; type: cell-based, human; details: Homo sapiens; NCI-H226; single dose 10^−5 M; read-out: Growth inhibition (%)
[11] = tested on: NCI-H23; assay: NCI-60 SRB screen; type: cell-based, human; details: Homo sapiens; NCI-H23; single dose 10^−5 M; read-out: Growth inhibition (%)
[12] = tested on: NCI-H322M; assay: NCI-60 SRB screen; type: cell-based, human; details: Homo sapiens, single dose 10^−5 M, read-out: Growth inhibition (%)
[13] = tested on: NCI-H460; assay: NCI-60 SRB screen; type: cell-based, human; details: Homo sapiens; NCI-H460; single dose 10^−5 M; read-out: Growth inhibition (%)
[14] = tested on: NCI-H522; assay: NCI-60 SRB screen; type: cell-based, human; details: Homo sapiens; NCI-H522; single dose 10^−5 M; read-out: Growth inhibition (%)
[15] = tested on: COLO 205; assay: NCI-60 SRB screen; type: cell-based, human; details: Homo sapiens; COLO 205; single dose 10^−5 M; read-out: Growth inhibition (%)
[16] = tested on: HCC-2998; assay: NCI-60 SRB screen; type: cell-based, human; details: Homo sapiens; HCC-2998; single dose 10^−5 M; read-out: Growth inhibition (%)
[17] = tested on: HCT-116; assay: NCI-60 SRB screen; type: cell-based, human; details: Homo sapiens; HCT-116; single dose 10^−5 M; read-out: Growth inhibition (%)
[18] = tested on: HCT-15; assay: NCI-60 SRB screen; type: cell-based, human; details: Homo sapiens; HCT-15; single dose 10^−5 M; read-out: Growth inhibition (%)
[19] = tested on: HT-29; assay: NCI-60 SRB screen; type: cell-based; details: Homo sapiens; HT-29; single dose 10^−5 M; read-out: Growth inhibition (%)
[20] = tested on: KM12; assay: NCI-60 SRB screen; type: cell-based, human; details: Homo sapiens; KM12; single dose 10^−5 M; read-out: Growth inhibition (%)
[21] = tested on: SW-620; assay: NCI-60 SRB screen; type: cell-based; details: Homo sapiens; SW-620; single dose 10^−5 M; read-out: Growth inhibition (%)
[22] = tested on: SF-268; assay: NCI-60 SRB screen; type: cell-based, human; details: Homo sapiens; SF-268; single dose 10^−5 M; read-out: Growth inhibition (%)
[23] = tested on: SF-295; assay: NCI-60 SRB screen; type: cell-based, human; details: Homo sapiens; SF-295; single dose 10^−5 M; read-out: Growth inhibition (%)
[24] = tested on: LOX IMVI; assay: NCI-60 SRB screen; type: cell-based, human; details: Homo sapiens, single dose 10^−5 M, read-out: Growth inhibition (%)
[25] = tested on: MALME-3M; assay: NCI-60 SRB screen; type: cell-based, human; details: Homo sapiens, single dose 10^−5 M, read-out: Growth inhibition (%)
[26] = tested on: M14; assay: NCI-60 SRB screen; type: cell-based, human; details: Homo sapiens; M14; single dose 10^−5 M; read-out: Growth inhibition (%)
[27] = tested on: MDA-MB-435; assay: NCI-60 SRB screen; type: cell-based; details: Homo sapiens, MDA-MB-435, read-out: Growth inhibition (%)
[28] = tested on: SK-MEL-2; assay: NCI-60 SRB screen; type: cell-based, human; details: Homo sapiens; SK-MEL-2; single dose 10^−5 M; read-out: Growth inhibition (%)
[29] = tested on: SK-MEL-28; assay: NCI-60 SRB screen; type: cell-based; details: Homo sapiens; SK-MEL-28; single dose 10^−5 M; read-out: Growth inhibition (%)
[30] = tested on: SK-MEL-5; assay: NCI-60 SRB screen; type: cell-based, human; details: Homo sapiens; SK-MEL-5; single dose 10^−5 M; read-out: Growth inhibition (%)
[31] = tested on: UACC-62; assay: NCI-60 SRB screen; type: cell-based, human; details: Homo sapiens; UACC-62; single dose 10^−5 M; read-out: Growth inhibition (%)
[32] = tested on: IGROV1; assay: NCI-60 SRB screen; type: cell-based, human; details: Homo sapiens, IGROV-1; IGROV1; single dose 10^−5 M; read-out: Growth inhibition (%)
[33] = tested on: OVCAR-3; assay: NCI-60 SRB screen; type: cell-based, human; details: Homo sapiens; OVCAR-3; single dose 10^−5 M; read-out: Growth inhibition (%)
[34] = tested on: OVCAR-4; assay: NCI-60 SRB screen; type: cell-based, human; details: Homo sapiens; OVCAR-4; single dose 10^−5 M; read-out: Growth inhibition (%)
[35] = tested on: OVCAR-8; assay: NCI-60 SRB screen; type: cell-based, human; details: Homo sapiens; OVCAR-8; single dose 10^−5 M; read-out: Growth inhibition (%)
[36] = tested on: NCI/ADR-RES; assay: NCI-60 SRB screen; type: cell-based, human; details: Homo sapiens, single dose 10^−5 M, read-out: Growth inhibition (%)
[37] = tested on: SK-OV-3; assay: NCI-60 SRB screen; type: cell-based, human; details: Homo sapiens; SK-OV-3; single dose 10^−5 M; read-out: Growth inhibition (%)
[38] = tested on: ACHN; assay: NCI-60 SRB screen; type: cell-based; details: Homo sapiens, single dose 10^−5 M, read-out: Growth inhibition (%)
[39] = tested on: CAKI-1; assay: NCI-60 SRB screen; type: cell-based, human; details: Homo sapiens; CAKI-1; single dose 10^−5 M; read-out: Growth inhibition (%)
[40] = tested on: RXF 393; assay: NCI-60 SRB screen; type: cell-based, human; details: Homo sapiens; RXF 393; single dose 10^−5 M; read-out: Growth inhibition (%)
[41] = tested on: SN12C; assay: NCI-60 SRB screen; type: cell-based, human; details: Homo sapiens, SN12C; SN 12 C; single dose 10^−5 M; read-out: Growth inhibition (%)
[42] = tested on: TK-10; assay: NCI-60 SRB screen; type: cell-based, human; details: Homo sapiens; TK-10; single dose 10^−5 M; read-out: Growth inhibition (%)
[43] = tested on: UO-31; assay: NCI-60 SRB screen; type: cell-based, human; details: Homo sapiens; UO-31; single dose 10^−5 M; read-out: Growth inhibition (%)
[44] = tested on: panel of 60 cancer cell lines; assay: NCI-60 SRB screen, mean or range over the panel; type: cell-based, human; details: Homo sapiens; mean over the cell lines; single dose 10^−5 M; read-out: Mean growth inhibition (%)

N#CC1C(=O)NC(c2cccc([N+](=O)[O-])c2)c2sc3c(F)cccc3c21 (centres unmarked) [Compound 5d, 4-Cyano-8-fluoro-1-(3-nitrophenyl)-1,2-dihydro[1]benzothieno[2,3-c] pyridin-3(4H)-one]
inhibition at 10 µM [1]: -0.08% | inhibition at 10 µM [2]: -0.44% | inhibition at 10 µM [3]: 8.17% | inhibition at 10 µM [4]: 18.9% | inhibition at 10 µM [5]: 17.3% | inhibition at 10 µM [6]: -6.53% | inhibition at 10 µM [7]: 11.5% | inhibition at 10 µM [8]: 21.4% | inhibition at 10 µM [9]: 17.2% | inhibition at 10 µM [10]: 3.95% | inhibition at 10 µM [11]: -0.19% | inhibition at 10 µM [12]: 4.25% | inhibition at 10 µM [13]: 18.1% | inhibition at 10 µM [14]: 22.4% | inhibition at 10 µM [15]: -14.8% | inhibition at 10 µM [16]: -14.2% | inhibition at 10 µM [17]: 7.78% | inhibition at 10 µM [18]: 0.05% | inhibition at 10 µM [19]: -2.29% | inhibition at 10 µM [20]: 5.7% | inhibition at 10 µM [21]: 7.44% | inhibition at 10 µM [22]: 16.4% | inhibition at 10 µM [23]: 1.95% | inhibition at 10 µM [24]: 17.4% | inhibition at 10 µM [25]: -12.1% | inhibition at 10 µM [26]: -8.86% | inhibition at 10 µM [27]: -6.69% | inhibition at 10 µM [28]: -13.1% | inhibition at 10 µM [29]: -21.6% | inhibition at 10 µM [30]: 4.83% | inhibition at 10 µM [31]: 12.2% | inhibition at 10 µM [32]: 36.6% | inhibition at 10 µM [33]: 9.36% | inhibition at 10 µM [34]: 9.55% | inhibition at 10 µM [35]: 5.37% | inhibition at 10 µM [36]: 2.18% | inhibition at 10 µM [37]: -0.9% | inhibition at 10 µM [38]: 13.5% | inhibition at 10 µM [39]: 14.4% | inhibition at 10 µM [40]: -7.73% | inhibition at 10 µM [41]: 5.16% | inhibition at 10 µM [42]: -58.3% | inhibition at 10 µM [43]: 41.3% | inhibition at 10 µM [44]: 5%
